According to article PMC10823514, “Target Identification of a Class of Pyrazolone Protein Aggregation Inhibitor Therapeutics for Amyotrophic Lateral Sclerosis” (ACS Central Science, 2023):
Read-outs that look alike come from different tables or passages of the source.

Tests used:
[1] = system: PC12 SOD1^G93A cells; assay: Neuroprotection against MG-132-induced toxicity in PC12 cells expressing mutant SOD1^G93A (calcein-AM viability); type: cell-based; conditions: Rattus norvegicus, PC-12, read-out: EC50 to ameliorate MG132-induced protein aggregation and cellular toxicity
Experimental: With this information in hand, we implemented a phenotypic drug discovery approach to identify a novel therapeutic for treating ALS. The study employed a rat PC12 cell-based assay that expresses SOD1^G93A mutation for screening a chemical library of more than 50,000 compounds to identify promising hits (Figure 1 compounds 3 and 4). The hits are based on attenuating proteasome inhibitor MG-132-induced SOD1^G93A cellular toxicity.
Viability EC50 values were determined according to the previously reported assay procedure.[43] Briefly, PC12 cells were seeded at 15,000 cells/well in 96-well plates, and the medium was changed to remove the doxycycline 4 days prior to compound addition. Compounds were assayed in 12-point dose–response experiments to determine the potency and efficacy. The highest compound concentration tested was 32 μM, which was decreased by half with each subsequent dose. After a 24 h incubation with the analytes, MG-132 (400 nM) was added and the cells were incubated at 37 °C for 24 h. The cells were washed twice with PBS. Calcein-AM was added at a final concentration of 1 μM for 20 min at room temperature, and the fluorescence intensity was read in a POLARstar fluorescence plate reader (BMG). EC50 values were determined by standardizing fluorescent signal to DMSO treated controls. […] The presented data represent the mean average of duplicate experiments.

[2] = target: T1, 25 kDa protein band in PC12 SOD1^G93A cells (Rattus norvegicus, UniProt P62260); assay: Competition of PRAPP photoaffinity labeling of the 25 kDa band in PC12-SOD1^G93A cells; type: binding; conditions: 30 μM PRAPP
T1 construct: we identified a 25 kDa covalently modified protein band in the PC12 SOD1^G93A cell line; endogenous in cells; host or cells: PC12-SOD1^G93A cells (live-cell UV photolabeling, then lysis)
T1 sequence (P62260 1-255): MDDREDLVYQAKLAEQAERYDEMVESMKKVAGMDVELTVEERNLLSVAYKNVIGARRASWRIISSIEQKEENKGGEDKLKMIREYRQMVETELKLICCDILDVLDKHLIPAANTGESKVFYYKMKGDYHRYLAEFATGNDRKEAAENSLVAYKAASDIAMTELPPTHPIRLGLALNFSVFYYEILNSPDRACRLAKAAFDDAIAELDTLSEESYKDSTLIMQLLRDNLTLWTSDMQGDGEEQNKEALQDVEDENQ
Experimental: PC12-SOD1^G93A cells were cultured and grown to 90% confluency (in 6-well plates) and washed once with PBS followed by the addition of serum medium containing the appropriate analyte at the indicated concentrations. Three incubation scenarios were studied (at 37 °C): Scenario 1) 12 h preincubation with PRAPP in the absence of MG-132; Scenario 2) 12 h preincubation with PRAPP in the absence of MG-132 followed by an additional 24 h incubation (control); and Scenario 3) 12 h preincubation with PRAPP followed by the addition of MG-132 (100 nM) and an additional 24 h incubation. After incubation, the medium was discarded and cells were washed with PBS (1 × 300 μL). Fresh serum-free medium was added, and the cells were irradiated with UV light (312 nm, 120 V, 60 Hz, 0.2 A [Spectroline model EB-160C], distance ∼4 cm) for 15 min. The medium was removed, cells were washed with PBS (2 × 500 μL), and 200 μL of lysis buffer containing Tris HCl (25 mM, pH 7.6), NaCl (150 mM), 1% NP40, 1% sodium deoxycholate, 0.1% SDS, and protease inhibitor cocktail (Sigma-Aldrich, 1:100 v/v) was added to each well. Complete lysis was observed by a microscope after 10 min at 4 °C with agitation. Each lysate was centrifuged at 4 °C for 5 min at 13,000 rpm, and the resulting supernatant was concentrated with a centrifugal filter (Amicon Ultra Centrifugal Filters 3K cutoff, Millipore), normalized to 1.0 mg/mL by the Bradford assay, and analyzed immediately or stored at −80 °C for subsequent analysis.
In a darkened (wrapped with aluminum foil) Eppendorf tube, each lysate (30 μL [30 μg]) was incubated with 10 μL of the freshly prepared “click” premix containing CuSO4 (5 mM), sodium ascorbate (5 mM), TBTA (200 μM), and N3–Alexa-647 (50 μM) were added to PBS (50 mM, pH 7.4). The corresponding final concentrations within the lysate click incubation were: CuSO4 (1.25 mM), sodium ascorbate (1.25 mM), TBTA (50 μM), and N3–Alexa-647 (12.5 μM). The mixture was vortexed briefly and incubated for 1.5 h at 37 °C in the dark. NuPAGE LDS sample loading buffer (4 × 13 μL) was added, and the mixture was denatured in boiling water for 10 min. SDS-PAGE was performed on Novex Bis-Tris gel 4–12% with MES SDS running buffer (90 V constant for 30 min followed by 100 V for 90 min; load volume = 25 μL). Protein standards that gave appropriate visible and fluorescent bands for our application included the BioRad Precision Plus All Blue Protein Standard and Novex Pre-Stained Protein Standard. In-gel fluorescence was monitored (excitation λ = 635 nm; emission λ = 670 nm) using a Typhoon 9400 (GE Healthcare) fluorimager. Densitometric analysis and image refinement were carried out as needed using ImageJ software (NIH, open source). The contrast and brightness of images were modified using ImageJ and/or Microsoft Word to enhance visualization for publication purposes.

[3] = system: PC12 SOD1^G93A cells; conditions: neuroprotection against MG-132-induced SOD1^G93A toxicity in PC12 cells; leads of the authors' earlier work; read-out: EC50 (NP = neuroprotection); cited from earlier work

Compound	EC50 [1]	competitor to PRAPP ratio at complete disappearance of the band [2]	EC50 ([2]; scenario 1, n = 2, read-out: EC50 for the competition with PRAPP (25 kDa band intensity))	EC50 [3]
C#CCN(Cc1cc(=O)[nH][nH]1)Cc1c(F)c(F)c(N=[N+]=[N-])c(F)c1F [PRAPP, 5-(((4-Azido-2,3,5,6-tetrafluorobenzyl)(prop-2-yn-1-yl)amino)methyl)-1,2-dihydro-3H-pyrazol-3-one]	190 nM	–	–	–
O=c1cc(COc2cc(Cl)cc(Cl)c2)[nH][nH]1 [P2]	–	6	11100 nM	67 nM
